Source: the supplement of paper PMC10307832

Experiments:
Test in all cases: relative viability (nuclei count vs DMSO), 5 days (fraction); higher = more cells survive
[1] = compound: Cn1nnc2c(C(N)=O)ncn2c1=O [Temozolomide] + COc1cc2c(Oc3ccc(NC(=O)C4(C(=O)Nc5ccc(F)cc5)CC4)cc3F)ccnc2cc1OCCCN1CCOCC1 [Foretinib] (partner 0.25 µM)
Summary of the method: (§1)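 Lung cancer cell lines were seeded in 1536-well plates and dosed by pin tool the next day, with either a single drug or a fixed anchor-drug dose combined with five library-drug doses (not always all listed) spaced in √10 steps. Five days later, one step fixed the cells and stained their nuclei (final 0.05% Triton X-100, 1% formaldehyde, 1 ug/ml Hoechst), and nuclei were counted on 4× images. Relative viability is the nuclei count in treated wells divided by the count in vehicle wells, and each value is the median of duplicate plates.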

[2] = compound: C[C@@H](C(=O)N[C@@H](C1CCCCC1)C(=O)N2CCC[C@H]2C(=O)N[C@@H]3[C@@H](CC4=CC=CC=C34)OCC#CC#CCO[C@@H]5CC6=CC=CC=C6[C@@H]5NC(=O)[C@@H]7CCCN7C(=O)[C@H](C8CCCCC8)NC(=O)[C@H](C)NC)NC [AZD5582] + Cc1nc(NC(=O)N2CCC[C@H]2C(N)=O)sc1-c1ccnc(C(C)(C)C(F)(F)F)c1 [Alpelisib] (partner 2 µM)
Summary of the method: as §1

[3] = compound: C[C@@H](C(=O)N[C@@H](C1CCCCC1)C(=O)N2CCC[C@H]2C(=O)N[C@@H]3[C@@H](CC4=CC=CC=C34)OCC#CC#CCO[C@@H]5CC6=CC=CC=C6[C@@H]5NC(=O)[C@@H]7CCCN7C(=O)[C@H](C8CCCCC8)NC(=O)[C@H](C)NC)NC [AZD5582] + Cc1nc(Nc2ncc(C(=O)Nc3c(C)cccc3Cl)s2)cc(N2CCN(CCO)CC2)n1 [Dasatinib] (partner 0.075 µM)
Summary of the method: as §1

[4] = compound: Cn1nnc2c(C(N)=O)ncn2c1=O [Temozolomide] + N=C(N)NC(=N)NCCc1ccccc1 [Phenformin] (partner 250 µM)
Summary of the method: as §1

Row | Cell Line | relative viability ([1]; first compound 0.2 µM) | relative viability ([1]; first compound 0.6325 µM) | relative viability ([1]; first compound 2 µM) | relative viability ([1]; first compound 6.325 µM) | relative viability ([1]; first compound 20 µM) | relative viability ([2]; first compound 0.001581 µM) | relative viability ([2]; first compound 0.005 µM) | relative viability ([2]; first compound 0.01581 µM) | relative viability ([2]; first compound 0.05 µM) | relative viability ([3]; first compound 0.001581 µM) | relative viability ([3]; first compound 0.005 µM) | relative viability ([3]; first compound 0.01581 µM) | relative viability ([3]; first compound 0.05 µM) | relative viability ([4]; first compound 0.2 µM) | relative viability ([4]; first compound 0.6325 µM) | relative viability ([4]; first compound 2 µM) | relative viability ([4]; first compound 6.325 µM) | relative viability ([4]; first compound 20 µM)
1 | NCI-H1993 | 0.81 | 0.722 | 0.807 | 0.72 | 0.672 | 0.706 | 0.669 | 0.647 | 0.671 | 0.634 | 0.576 | 0.557 | 0.573 | 0.563 | 0.493 | 0.469 | 0.464 | 0.613
2 | NCI-H2009 | 1.23 | 1.21 | 1.24 | 1.2 | 1.3 | 1.12 | 1.15 | 1.17 | 1.18 | 0.297 | 0.382 | 0.268 | 0.307 | 0.521 | 0.482 | 0.534 | 0.402 | 0.487
3 | NCI-H2023 | 0.825 | 0.749 | 0.847 | 0.68 | 0.848 | 0.562 | 0.538 | 0.567 | 0.609 | 0.521 | 0.581 | 0.553 | 0.49 | 0.431 | 0.442 | 0.467 | 0.401 | 0.449
4 | NCI-H2085 | 0.847 | 1.04 | 1.05 | 0.939 | 0.749 | 1 | 0.987 | 0.928 | 1.01 | 0.265 | 0.366 | 0.282 | 0.355 | 0.594 | 0.707 | 0.809 | 0.689 | 0.649
5 | NCI-H2087 | 1.23 | 1.16 | 1.19 | 1.23 | 1.04 | 1.08 | 1.01 | 1.13 | 1.19 | 0.7 | 0.915 | 0.848 | 0.945 | 0.49 | 0.474 | 0.506 | 0.458 | 0.482
6 | NCI-H2126 | 1.04 | 1.3 | 1.23 | 1.38 | 1.27 | 0.785 | 0.766 | 0.695 | 0.762 | 0.61 | 0.678 | 0.555 | 0.684 | 0.503 | 0.591 | 0.574 | 0.513 | 0.519
7 | NCI-H2170 | – | 1.01 | 1.05 | 0.993 | 0.526 | 0.764 | 0.809 | 0.867 | 0.969 | 0.494 | 0.571 | 0.558 | 0.471 | – | 0.422 | 0.448 | 0.349 | 0.327
8 | NCI-H2228 | 1.05 | 1.05 | 0.854 | 0.691 | 0.961 | 0.776 | 0.625 | 0.924 | 0.365 | 0.437 | 0.506 | 0.478 | 0.139 | 0.411 | 0.508 | 0.307 | 0.3 | 0.351
